# “And” between values parts separate entries of the source, which are not always exact repeats. Equal entries are not always repeated. Marks after values point to notes of the source that are not given here.
# Columns and labels:
# Assay type in all cases: in vivo, human
# Krt-10 mRNA = test: RT-PCR of keratin-10 mRNA relative to β-actin in SLS-irritated and control skin (tape and biopsy)
# Description: (§1) The samples analyzed in this study are those described in the protocol performed by Wong et al. (Wong, Tran et al. 2004). […] Patches were removed and equivalent skin sites were biopsied and tape stripped as described in the Examples above. As an additional control, normal skin was also biopsied and tape stripped. Samples were processed for total RNA and assayed for keratin-10, keratin-16, keratin-17 and β-actin mRNA. The keratin mRNAs were normalized to β-actin mRNA in each sample. The semi-quantitative RT-PCR assay has been previously described (Wong, Tran et al. 2004).
# Krt-16 mRNA = test: RT-PCR of keratin-16 mRNA relative to β-actin in SLS-irritated and control skin (tape and biopsy); design: key to ΔCt,Krt-16, Tape, SLS / ΔCt,Krt-16, Biopsy, SLS: ΔCt: keratin mRNA Ct normalized to β-actin Ct in same sample
# Description: as §1
# IL-8 mRNA = test: Semi-quantitative RT-PCR of IL-8 mRNA relative to β-actin in SLS-occluded skin (tape and biopsy)
# Description: Clinical protocols: The study protocols were reviewed and approved by an independent IRB (BioMed IRB, San Diego) and all subjects signed informed consent. Ten healthy women, ages 21-55 were enrolled in the study. Regions of unblemished, normal appearing skin on the mid back were chosen for the application of 2 occlusive patches in the form of bandages approximately 4 cm×6.5 cm. The bandages were made using a clear, non-porous plastic hypoallergenic adhesive tape. In the center of this tape was a Webril (non-woven cotton) patch measuring approximately 2 cm×4.5 cm. One Webril patch contained 0.6 ml of 1% aqueous sodium lauryl sulfate and the other contained 0.6 ml of sterile water as the vehicle control. […] At 24 hours post application, the SLS and water patches were removed and the skin allowed to air dry for 15 minutes before scoring. The sites were scored by a trained technician using the scale provided below. Patched sites were large enough that two areas could be tape harvested without overlap and room left for a shave biopsy (˜2×2 mm). Skin sites were tape stripped with 4 tapes each and then a shave biopsy taken under local anesthetic (lidocaine HCl 1% and epinephrine 1:100,000; Abbott Laboratories). The tapes were applied to the skin using 20 seconds of firm pressure with a circular motion The tape used for tape stripping was a synthetic rubber-based adhesive on a polyurethane film (Product No. 90068, Adhesive Research, Glen Rock, Pa.). An area of uninvolved skin was tape harvested and shave biopsied in an identical manner. Tapes were stored in individual eppendorf tubes at −80 until extraction; biopsy samples were placed in buffer RLT and stored at −80 until extraction. Skin responses to each patch application were examined and graded under light supplied by a 100-watt incandescent blue bulb. The following grading scale was used: 0, no visible reaction; 1, slight, pink, patchy erythema; 2, mild confluent, pink erythema; 3, moderate erythema (definite redness) with edema; 4, strong erythema (very intense redness) with edema. In a second study, 3 subjects had 3 patches containing 1% SLS and 3 water patches applied to the mid back for 24 hours: Patches were removed, scored and tape stripped as above. In a third study, two individuals were tape stripped on uninvolved skin on the upper back at three adjacent sites as above. RNA harvested in these last two studies was used in the DNA microarray experiments described below.
# Isolation of RNA: The RNA within skin cells adherent to the 4 tapes used to harvest a site was pooled by simultaneously extracting the tapes in a volume of buffer RLT (supplied with RNeasy kit). Extraction was performed using the manufacturer's directions and included a Proteinase K digestion, sonication of tapes and “on-column” DNase I digestion. RNA was eluted in 100 microliters of sterile, RNase free water. Extraction of biopsies was performed with the same kit according to the manufacturer's instructions.
# Quantitative RT-PCR: 10 μl of RNA was reverse transcribed (RT) into cDNA with the Sensiscript Reverse Transcriptase kit and random hexamers in a final volume of […] according to the manufacturer's directions. The reaction was diluted 5-fold with sterile, nuclease-free water (Ambion) for use in the subsequent amplification/detection reaction. For each specific mRNA detection, 3 replicate RT^+ reactions and one RT^− (no reverse transcriptase; negative control) reaction were performed. Two amplification/detection reactions were done on each RT^+ reaction to yield a total of 6 independent determinations of the threshold value (Ct; discussed below).
# (§2) Amplification and detection of specific mRNA: Specific mRNAs were converted to cDNA as described above. Specific cDNAs were semi-quantified using gene specific primer/probes (5′-nuclease assay) and fluorescence detection.
# GAPDH mRNA = test: Semi-quantitative RT-PCR of GAPDH mRNA relative to β-actin in SLS-occluded skin (tape and biopsy); conditions: 1% SLS 24 h occluded skin, mean ± SD per subject, last line average, sulfate
# Description: Clinical protocols: The study protocols were reviewed and approved by an independent IRB (BioMed IRB, San Diego) and all subjects signed informed consent. Ten healthy women, ages 21-55 were enrolled in the study. Regions of unblemished, normal appearing skin on the mid back were chosen for the application of 2 occlusive patches in the form of bandages approximately 4 cm×6.5 cm. The bandages were made using a clear, non-porous plastic hypoallergenic adhesive tape. In the center of this tape was a Webril (non-woven cotton) patch measuring approximately 2 cm×4.5 cm. One Webril patch contained 0.6 ml of 1% aqueous sodium lauryl sulfate and the other contained 0.6 ml of sterile water as the vehicle control. […] The sites were scored by a trained technician using the scale provided below. […] In a second study, 3 subjects had 3 patches containing 1% SLS and 3 water patches applied to the mid back for 24 hours: Patches were removed, scored and tape stripped as above. […]
# Quantitative RT-PCR: 10 μl of RNA was reverse transcribed (RT) into cDNA with the Sensiscript Reverse Transcriptase kit and random hexamers in a final volume of […] according to the manufacturer's directions. […]
# as §2
# [1] = SLS-occluded skin vs uninvolved skin
structure (smiles),measurement,setting,value
"CCCCCCCCCCCCOS(=O)(=O)[O-].[Na+] [SLS, sodium lauryl sulfate]","Fold Increase Krt-10/β-actin mRNA vs. normal, Tape, SLS","Krt-10 mRNA; 1% SLS patch 24 hours vs untreated skin, tape-stripped RNA, per subject and Average, sulfate, mean",0.06 fold
same,average decrease in K10 expression,"Krt-10 mRNA; SLS treatment vs untreated skin, tape and biopsy virtually identical",~20 fold
same,"ΔCt,Krt-16, Biopsy, SLS","Krt-16 mRNA; 1% SLS occlusive patch 24 hours, mid-back, biopsy RNA, relative to β-actin, per subject 1-10 and Average, sulfate",0.97 and −2.43 and −2.21 and 1.41 and −1.12 and −1.75 and −2.01 and −1.79 and 0.74 and −0.32
same,"ΔCt,Krt-16, Tape, SLS","Krt-16 mRNA; 1% SLS occlusive patch 24 hours, mid-back, tape-stripped RNA, relative to β-actin, per subject 1-10 and Average, sulfate",−4.51 and 3.04 and 3.96 and −2.87 and 0.53 (2×) and 3.1 and 4.32 and 2.87 and −0.97
same,"Fold Increase Krt-16/actin mRNA ratio vs. normal, Biopsy, SLS","Krt-16 mRNA; 1% SLS patch 24 hours vs untreated skin, biopsy RNA, per subject and Average, sulfate",14.73 fold and 76.61 fold and 55.14 fold and 18.4 fold and 30.85 fold and 113.69 fold and 108.78 fold and 82.98 fold and 8.57 fold and 24.78 fold
same,"Fold Increase Krt-16/actin mRNA ratio vs. normal, Tape, SLS","Krt-16 mRNA; 1% SLS patch 24 hours vs untreated skin, tape-stripped RNA, per subject and Average, sulfate",1.25 fold and 0.03 fold and 0.01 fold and 0.2 fold and 0.02 fold and 0.04 fold and 0.17 fold
same,"average decrease in K16 expression, tape",Krt-16 mRNA; SLS-treated skin vs untreated,9 fold
same,"average fold-increase of K16 mRNA expression, biopsy",Krt-16 mRNA; SLS-treated skin vs untreated,39 fold
same,"fold-change in IL-8/β-actin mRNA ratio, Biopsy","IL-8 mRNA; SLS-occluded skin relative to uninvolved skin, biopsy samples, per subject, > = minimum estimate, sulfate",>171**^† fold and >12**^† fold and >101**^† fold and >778**^† fold and >42**^† fold and >594**^† fold and >368**^† fold and >1.1 fold (2×) and 84**^† fold
same,"fold-change in IL-8/β-actin mRNA ratio, Tape","IL-8 mRNA; SLS-occluded skin relative to uninvolved skin, tape samples, per subject, > = minimum estimate, sulfate",24**^† fold and >9.3**^† fold and >6.8** fold and >235**^† fold and >41**^† fold and 18** fold and >3** fold and 6**^† fold
same,biopsy samples with significant increases in IL-8/actin mRNA ratio,IL-8 mRNA; [1],8 of 10
same,tape-harvested samples with significantly increased IL-8/β-actin mRNA ratio,IL-8 mRNA; [1],8 of 10
same,"ΔCt,IL-8, Biopsy","IL-8 mRNA; SLS-occluded skin, biopsy RNA, per subject and average, sulfate",4.13 and 6.56 ± 0.10 and 3.06 ± 0.11 and 0.76 ± 0.13 and 5.11 ± 0.06 and 1.67 ± 0.08 and 1.06 ± 0.07 and 9.81 ± 0.26 and 9.15 ± 0.15 and 1.82 ± 0.05 and 2.29 ± 0.13
same,"ΔCt,IL-8, Tape","IL-8 mRNA; SLS-occluded skin, tape-harvested RNA, per subject and average, > = minimum ΔCt (Ct assigned 37), sulfate",−1.28 and −0.89 and −1.28 ± 0.11 and −3.05 ± 0.15 and −0.05 ± 0.11 and −0.68 ± 0.08 and −0.44 ± 0.06 and 0.02 ± 0.17 and 0.56 ± 0.07 and >1.51 ± 0.17 and −0.36 ± 0.05 and −2.59 ± 0.07
same,IL-8/actin mRNA ratio of subject 4's SLS site vs average for water-occluded samples,"IL-8 mRNA; tape-harvested, from ΔCt −1.28 and average ΔCt 1.54",7.1 fold
same,IL-8/β-actin mRNA ratio of subject 4's SLS site vs average value for uninvolved skin,"IL-8 mRNA; tape-harvested, from ΔCt −1.28 and average ΔCt >2.49",≥ 13.6 fold
same,"ΔCt,GAPDH (Ct,GAPDH − Ct,actin), Biopsy",GAPDH mRNA; shave biopsy RNA,1.44 ± 0.11 and 1.68 ± 0.09 and 1.78 ± 0.10 and 2.33 ± 0.07 and 1.73 ± 0.09 and 1.54 ± 0.10 and 3.25 ± 0.08 and 1.05 ± 0.07 and 1.61 ± 0.11 and 1.95 ± 0.08
same,"ΔCt,GAPDH (Ct,GAPDH − Ct,actin), Tape",GAPDH mRNA; tape-harvested RNA,3.02 ± 0.08 and 2.28 ± 0.10 and 3.15 ± 0.15 and 2.87 ± 0.10 and 2.68 ± 0.09 and 3 ± 0.11 and 2.85 ± 0.15 and 2.46 ± 0.08 and 2.78 ± 0.44 and 2.56 ± 0.11

# — US7989165B2, “Tape stripping methods for analysis of skin disease and pathological skin state” (DermTech International, priority 2004, dated 2011)
